We go through 30 molecules from patent US10604535B2, “Compounds, compositions and methods” (Denali Therapeutics Inc., priority 2016, dated 2020).

Chain of GST-hRIPK1 (8-327) (Q13546 8-327): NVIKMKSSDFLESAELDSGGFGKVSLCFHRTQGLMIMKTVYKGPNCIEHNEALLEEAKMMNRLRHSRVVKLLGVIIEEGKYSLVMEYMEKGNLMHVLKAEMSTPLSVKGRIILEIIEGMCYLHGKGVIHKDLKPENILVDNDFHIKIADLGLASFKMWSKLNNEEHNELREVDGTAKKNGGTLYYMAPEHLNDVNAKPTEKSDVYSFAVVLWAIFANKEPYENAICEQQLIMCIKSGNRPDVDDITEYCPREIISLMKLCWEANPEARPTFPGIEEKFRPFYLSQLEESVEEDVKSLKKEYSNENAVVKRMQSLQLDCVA

This assay addresses GST-hRIPK1 (8-327) (Homo sapiens (Human), UniProt Q13546). Kind of assay: Fluorescent Polarization Binding (FP Binding) assay.
What is called IC50 is the point on the concentration scale where inhibition reaches its midpoint. Read a low IC50 as inhibition by little substance. Consider `C[C@H]1Oc2cccnc2N(C)C(=O)[C@H]1NC(=O)c1cnn(Cc2ccccc2)n1` [Example 204, 2-benzyl-N-((2R,3S)-2,5-dimethyl-4-oxo-2,3,4,5-tetrahydropyrido[3,2-b][1,4]oxazepin-3-yl)-2H-1,2,3-triazole-4-carboxamide], for which the IC50 lay within 0.1 to 1000 nM. Turning to `C[C@@H]1Oc2cccnc2N(C)C(=O)[C@H]1NC(=O)c1nnc(Cc2ccccc2)[nH]1` [Example 95, 5-benzyl-N-((2S,3S)-2,5-dimethyl-4-oxo-2,3,4,5-tetrahydropyrido[3,2-b][1,4]oxazepin-3-yl)-4H-1,2,4-triazole-3-carboxamide], the IC50 is > 3000 nM. In the case of `N#Cc1cccc(Cn2cc(F)c(C(=O)N[C@H]3C(=O)Nc4c(F)cc(F)cc4[C@H]4C[C@H]43)n2)c1` [Example 170B, 1-(3-cyanobenzyl)-N-((1aR,2R,8bS)-5,7-difluoro-3-oxo-1,1a,2,3,4,8b-hexahydrobenzo[b]cyclopropa[d]azepin-2-yl)-4-fluoro-1H-pyrazole-3-carboxamide], the IC50 was > 3000 nM. In the case of `O=C(N[C@@H]1COc2cccnc2-n2ccnc21)c1nnc(Cc2ccccc2)[nH]1` [Example 141A, (S)-5-Benzyl-N-(6,7-dihydroimidazo[1,2-d]pyrido[3,2-b][1,4]oxazepin-7-yl)-4H-1,2,4-triazole-3-carboxamide], the IC50 is > 3000 nM. As for `CN1C(=O)[C@H](NC(=O)c2nnc(Cc3ccccc3)o2)[C@@H]2C[C@@H]2c2cccnc21` [Example 157A, 5-benzyl-N-((1aR,2R,8bS)-4-methyl-3-oxo-1,1a,2,3,4,8b-hexahydrocyclopropa[d]pyrido[2,3-b]azepin-2-yl)-1,3,4-oxadiazole-2-carboxamide], the IC50 is > 3000 nM. The figure for `Cn1ncc2c1CC[C@@H](NC(=O)c1nnc(Cc3ccccc3)[nH]1)C(=O)N2` [Example 118A, (R)-5-benzyl-N-(1-methyl-5-oxo-1,4,5,6,7,8-hexahydropyrazolo[4,3-b]azepin-6-yl)-4H-1,2,4-triazole-3-carboxamide] is > 3000 nM.

Turning to `CN1C(=O)[C@@H](NC(=O)c2cc(Oc3ccc(F)cc3F)ccn2)CCc2cccnc21` [Example 121B, (S)-4-(2,4-difluorophenoxy)-N-(9-methyl-8-oxo-6,7,8,9-tetrahydro-5H-pyrido[2,3-b]azepin-7-yl)picolinamide], the IC50 was in the range of 0.1 to 1000 nM. `C[C@H]1Oc2cccnc2N(C)C(=O)[C@H]1NC(=O)c1ccn(Cc2ccccc2)n1` [Example 155, 1-Benzyl-N-((2R,3S)-2,5-dimethyl-4-oxo-2,3,4,5-tetrahydropyrido[3,2-b][1,4]oxazepin-3-yl)-1H-pyrazole-3-carboxamide] had an IC50 of 0.1 to 1000 nM. The same measure for `CN1C(=O)[C@H](NC(=O)c2nnc(C3(c4ccccc4)CC3)o2)CCc2nccnc21` [Example 180B, (R)—N-(5-methyl-6-oxo-6,7,8,9-tetrahydro-5H-pyrazino[2,3-b]azepin-7-yl)-5-(1-phenylcyclopropyl)-1,3,4-oxadiazole-2-carboxamide]: > 3000 nM; for `CN1C(=O)[C@H](NC(=O)c2nnc(Cc3ccccc3)o2)C2(CC2)Oc2cccnc21` [Example 160B, (R)-5-benzyl-N-(5′-methyl-4′-oxo-4′,5′-dihydro-3′H-spiro[cyclopropane-1,2′-pyrido[3,2-b][1,4]oxazepin]-3′-yl)-1,3,4-oxadiazole-2-carboxamide]: > 3000 nM; for `Cc1nc2c(s1)CC[C@@H](NC(=O)c1nnc(Cc3ccccc3)[nH]1)C(=O)N2C` [Example 38B, (R)-5-benzyl-N-(2,4-dimethyl-5-oxo-5,6,7,8-tetrahydro-4H-thiazolo[4,5-b]azepin-6-yl)-4H-1,2,4-triazole-3-carboxamide]: > 3000 nM. `Cn1ncc2c1CC[C@H](NC(=O)c1nnc(Cc3ccccc3)[nH]1)C(=O)N2` [Example 118B, (S)-5-benzyl-N-(1-methyl-5-oxo-1,4,5,6,7,8-hexahydropyrazolo[4,3-b]azepin-6-yl)-4H-1,2,4-triazole-3-carboxamide] returned an IC50 of 1000 to 10000 nM.

`CN1C(=O)[C@H](NC(=O)c2nnc(Cc3ccccc3)o2)CCc2cccnc21` [Example 148B, (R)-5-benzyl-N-(9-methyl-8-oxo-6,7,8,9-tetrahydro-5H-pyrido[2,3-b]azepin-7-yl)-1,3,4-oxadiazole-2-carboxamide] displayed an IC50 of 1000 to 10000 nM. `CN1C(=O)[C@@H](NC(=O)c2ncc(Cc3ccccc3)o2)[C@H]2C[C@H]2c2nccnc21` [Example 194, 5-benzyl-N-((7S,7aS,8aR)-5-methyl-6-oxo-5,6,7,7a,8,8a-hexahydrocyclopropa[d]pyrazino[2,3-b]azepin-7-yl)oxazole-2-carboxamide]: the IC50 lay in the range of 0.1 to 1000 nM. For `CN1C(=O)[C@@H](NC(=O)c2nnc(C3(c4ccccc4)CC3)[nH]2)COc2cccnc21` [Example 106, (S)—N-(5-methyl-4-oxo-2,3,4,5-tetrahydropyrido[3,2-b][1,4]oxazepin-3-yl)-5-(1-phenylcyclopropyl)-4H-1,2,4-triazole-3-carboxamide], the IC50 is 0.1 to 1000 nM. Regarding `O=C(N[C@H]1COc2cccnc2-n2ccnc21)c1nnc(Cc2ccccc2)[nH]1` [Example 141B, (R)-5-benzyl-N-(6,7-dihydroimidazo[1,2-d]pyrido[3,2-b][1,4]oxazepin-7-yl)-4H-1,2,4-triazole-3-carboxamide], the IC50 was in the range of 0.1 to 1000 nM.

The molecule `Cc1cc2n(n1)CC[C@H](NC(=O)c1nnc(Cc3ccccc3)[nH]1)C(=O)N2C` [Example 129A, (S)-5-Benzyl-N-(2,4-dimethyl-5-oxo-5,6,7,8-tetrahydro-4H-pyrazolo[1,5-a][1,3]diazepin-6-yl)-4H-1,2,4-triazole-3-carboxamide] returned an IC50 of 0.1 to 1000 nM. `CN1C(=O)[C@@H](NC(=O)c2cc(CC(F)(F)F)on2)COc2ccccc21` [Example 14, (S)—N-(5-methyl-4-oxo-2,3,4,5-tetrahydrobenzo[b][1,4]oxazepin-3-yl)-5-(2,2,2-trifluoroethyl)isoxazole-3-carboxamide] gave an IC50 of 0.1 to 1000 nM. Take `CN1C(=O)C(NC(=O)c2nnc(Cc3ccccc3)[nH]2)[C@@H]2C[C@@H]2c2ccccc21` (stereo in doubt) [Example 46B, 5-benzyl-N-((2S)-4-methyl-3-oxo-1,1a,2,3,4,8b-hexahydrobenzo[b]cyclopropa[d]azepin-2-yl)-4H-1,2,4-triazole-3-carboxamide]: the IC50 is > 3000 nM. Consider `O=C(N[C@H]1COc2cccnc2NC1=O)c1nnc(C2CCc3ccccc32)[nH]1` (single isomer, unassigned) [Example 102A], for which the IC50 fell in the range of 1000 to 10000 nM. For `CN1C(=O)[C@H](NC(=O)c2nn(Cc3ccccc3)cc2F)CCc2nn(C)cc21` [Example 109B, (R)-1-benzyl-N-(2,4-dimethyl-5-oxo-2,4,5,6,7,8-hexahydropyrazolo[4,3-b]azepin-6-yl)-4-fluoro-1H-pyrazole-3-carboxamide], the IC50 is > 3000 nM. As to `Cc1cnn2c1N(C)C(=O)[C@@H](NC(=O)c1nnc(Cc3ccccc3)[nH]1)CC2` [Example 131A, (S)-5-Benzyl-N-(3,4-dimethyl-5-oxo-5,6,7,8-tetrahydro-4H-pyrazolo[1,5-a][1,3]diazepin-6-yl)-4H-1,2,4-triazole-3-carboxamide], the IC50 was 0.1 to 1000 nM. For the molecule `N#Cc1cccc(Cc2nnc(C(=O)N[C@H]3C(=O)Nc4c(F)cc(F)cc4[C@H]4C[C@H]43)[nH]2)c1` [Example 181A, 5-(3-cyanobenzyl)-N-((1aR,2R,8bS)-5,7-difluoro-3-oxo-1,1a,2,3,4,8b-hexahydrobenzo[b]cyclopropa[d]azepin-2-yl)-4H-1,2,4-triazole-3-carboxamide], the IC50 is > 3000 nM. `C[C@@H]1Oc2cccnc2N(C)C(=O)[C@H]1NC(=O)c1nn(Cc2ccccc2)cc1F` [Example 93, 1-benzyl-N-((2S,3S)-2,5-dimethyl-4-oxo-2,3,4,5-tetrahydropyrido[3,2-b][1,4]oxazepin-3-yl)-4-fluoro-1H-pyrazole-3-carboxamide] registered an IC50 of 0.1 to 1000 nM. As to `CN1C(=O)[C@H](NC(=O)c2nn(Cc3ccccc3F)cc2F)[C@@H]2C[C@@H]2c2nccnc21` [Example 179B, 4-fluoro-1-(2-fluorobenzyl)-N-((7R,7aR,8aS)-5-methyl-6-oxo-5,6,7,7a,8,8a-hexahydrocyclopropa[d]pyrazino[2,3-b]azepin-7-yl)-1H-pyrazole-3-carboxamide], the IC50 is > 3000 nM. `CN1C(=O)[C@H](NC(=O)c2nnc(Cc3ccccc3)o2)[C@@H]2C[C@@H]2c2nccnc21` [Example 177B, 5-benzyl-N-((7R,7aR,8aS)-5-methyl-6-oxo-5,6,7,7a,8,8a-hexahydrocyclopropa[d]pyrazino[2,3-b]azepin-7-yl)-1,3,4-oxadiazole-2-carboxamide]: the IC50 was > 3000 nM. As to `CN1C(=O)[C@H](NC(=O)c2nnc(C3(c4ccccc4)CC3)o2)CCc2cccnc21` [Example 145B, (R)—N-(9-methyl-8-oxo-6,7,8,9-tetrahydro-5H-pyrido[2,3-b]azepin-7-yl)-5-(1-phenylcyclopropyl)-1,3,4-oxadiazole-2-carboxamide], the IC50 is > 3000 nM.

For `CN1C(=O)[C@H](NC(=O)c2nnc(Cc3ccccc3)[nH]2)CC2(CC2)c2cccnc21` [Example 125A, (R)-5-benzyl-N-(9′-methyl-8′-oxo-6′,7′,8′,9′-tetrahydrospiro[cyclopropane-1,5′-pyrido[2,3-b]azepin]-7′-yl)-4H-1,2,4-triazole-3-carboxamide], the IC50 was > 3000 nM. The figure for `Cn1cc2c(n1)CC[C@@H](NC(=O)c1nnc(Cc3ccccc3)[nH]1)C(=O)N2` [Example 104A, (R)-5-benzyl-N-(2-methyl-5-oxo-2,4,5,6,7,8-hexahydropyrazolo[4,3-b]azepin-6-yl)-4H-1,2,4-triazole-3-carboxamide] is > 3000 nM; for `[2H]C([2H])([2H])N1C(=O)[C@H](NC(=O)c2nn(Cc3ccccc3)cc2F)[C@@H]2C[C@@H]2c2cc(S(C)(=O)=O)ccc21` [Example 183A, 1-benzyl-4-fluoro-N-((1aR,2R,8bS)-4-trideuteriomethyl-7-(methylsulfonyl)-3-oxo-1,1a,2,3,4,8b-hexahydrobenzo[b]cyclopropa[d]azepin-2-yl)-1H-pyrazole-3-carboxamide] it is > 3000 nM.
